Data taken from patent publication US20220411449A1, “Method for Preparing Heteroleptic Triarylbismuthanes and Compounds Produced by the Same” (UNIVERSITY OF HAWAII, priority 2019, published 2022).
In brackets after ≈: the same amount, converted by molar mass.

Assays:
S. aureus = test: Minimum Inhibitory Concentration (MIC) determination, 96-well plates, OD600; conditions: for MIC, S. aureus: 24 hours at 37° C., compounds tested at 0-5 μg/mL in duplicate, Kanamycin 0-4 μg/mL
E. coli = test: as above; conditions: for MIC, E. coli: 24 hours at 37° C., compounds tested at 0-40 μg/mL in duplicate, Kanamycin 0-4 μg/mL
Escherichia coli = test: Disk diffusion zone of inhibition; conditions: for Antibacterial activity against E. coli, in words: disk diffusion, at the concentration tested; for Zone of Inhibition, E. coli: disks with 1-5 μg compound/disk, positive control 30 μg Tetracycline, 22 hours at 37° C., LB agar
Staphylococcus aureus = test: Disk diffusion zone of inhibition; conditions: for Antibacterial activity against S. aureus, in words: disk diffusion, at the concentration tested; for Zone of Inhibition, S. aureus: disks with 1-5 μg compound/disk, positive control 5 μg Novobiocin, 22 hours at 37° C., LB agar
[1] = system: Vesicular Stomatitis Virus (Indiana strain); format: cell-based

Row | SMILES | MIC (S. aureus; Staphylococcus aureus, 24 h, read-out: MIC, S. aureus) [µg/mL] | MIC (E. coli; Escherichia coli, 24 h, read-out: MIC, E. coli) [µg/mL] | Antibacterial activity against E. coli, in words (Escherichia coli) | Zone of Inhibition, E. coli (Escherichia coli) [cm] | Antibacterial activity against S. aureus, in words (Staphylococcus aureus) | Zone of Inhibition, S. aureus (Staphylococcus aureus) | MIC, S. aureus (S. aureus) | % Plaque Reduction [1] [%] | MIC, E. coli (E. coli) | zone of inhibition at 5 µg/disc (Staphylococcus aureus; Staphylococcus aureus, 22 h, read-out: Zone of Inhibition, S. aureus) [mm] | zone of inhibition at 30 µg/disc (Escherichia coli; Escherichia coli, 22 h, read-out: Zone of Inhibition, E. coli) [mm]
1 | NC[C@H]1O[C@H](O[C@H]2[C@H](O)[C@@H](O[C@H]3O[C@H](CO)[C@@H](O)[C@H](N)[C@H]3O)[C@H](N)C[C@@H]2N)[C@H](O)[C@@H](O)[C@@H]1O [Kanamycin, reference compound] | 0.0625 (≈ 0.129 µM) | 0.0625 (≈ 0.129 µM) |  |  |  |  |  |  |  |  | 
2 | Cc1cc[c]([Bi]([c]2c(C)cc(C)cc2C)[c]2c(C)cc(C)cc2C)cc1 [Compound 11] |  |  | little activity against E. coli | 0 | showed antibacterial activity against S. aureus | 0.8 cm |  |  |  |  | 
3 | Cc1cc(C)[c]([Bi]([I])[c]2c(C)cc(C)cc2C)c(C)c1 [Compound 23] |  |  | weaker antimicrobial activity against E. coli | 0.6 | most effective against S. aureus | 0.9-1.9 cm |  |  |  |  | 
4 | Cc1ccc(S(=O)(=O)[O][Bi]([c]2ccccc2)[c]2ccccc2)cc1 [Compound 14] |  |  | weaker antimicrobial activity against E. coli | 1.3 | most effective against S. aureus | 2.1 cm | 0.625 µg/mL | 29.7 | 10 µg/mL |  | 
5 | COc1cc[c]([Bi]([c]2c(C)cc(C)cc2C)[c]2c(C)cc(C)cc2C)cc1 [Compound 2] |  |  | little activity against E. coli | 0 | showed antibacterial activity against S. aureus | 1 cm |  |  |  |  | 
6 | COc1cc[c]([Bi]([c]2ccccc2)[c]2ccccc2)cc1 [Compound 3] |  |  | little activity against E. coli | 0 | showed antibacterial activity against S. aureus | 1 cm |  |  |  |  | 
7 | N#Cc1cc[c]([Bi]([c]2ccccc2)[c]2ccccc2)cc1 [Compound 6] |  |  |  | 0 |  | 0 cm |  |  |  |  | 
8 | COC(=O)c1cc[c]([Bi]([c]2ccccc2)[c]2ccccc2)cc1 [Compound 4] |  |  |  | 0 |  | 0 cm |  |  |  |  | 
9 | Cc1cc[c]([Bi]([c]2ccc(C#N)cc2)[c]2ccc(C#N)cc2)cc1 [Compound 10] |  |  | little activity against E. coli | 0 | showed antibacterial activity against S. aureus | 0.9 cm |  |  |  |  | 
10 | Cc1cc[c]([Bi]([O]S(=O)(=O)c2ccc(C)cc2)[O]S(=O)(=O)c2ccc(C)cc2)cc1 [Compound 22] |  |  |  | 0 |  |  |  |  |  |  | 
11 | Cc1cc(C)[c]([Bi]([c]2ccccc2)[c]2c(C)cc(C)cc2C)c(C)c1 [Compound 8] |  |  | little activity against E. coli | 0 | showed antibacterial activity against S. aureus | 1 cm |  |  |  |  | 
12 | [I][Bi]([c]1ccccc1)[c]1ccccc1 [Compound 18] |  |  | weaker antimicrobial activity against E. coli | 1.3 | most effective against S. aureus | 2.2 cm | 0.625 µg/mL | 99.95 | 10 µg/mL |  | 
13 | Cc1cc(C)[c]([Bi]([c]2ccc(C#N)cc2)[c]2c(C)cc(C)cc2C)c(C)c1 [Compound 13] |  |  | little activity against E. coli | 0 | showed antibacterial activity against S. aureus | 0.9 cm |  |  |  |  | 
14 | COc1cc[c]([Bi]([c]2ccc(C#N)cc2)[c]2ccc(C#N)cc2)cc1 [Compound 9] |  |  | little activity against E. coli | 0 | showed antibacterial activity against S. aureus | 1 cm |  |  |  |  | 
15 | CO[C@@H]1[C@@H](OC(N)=O)[C@@H](O)[C@H](Oc2ccc3c(O)c(NC(=O)c4ccc(O)c(CC=C(C)C)c4)c(=O)oc3c2C)OC1(C)C [Novobiocin, reference compound] |  |  |  |  |  |  |  |  |  | 20 to 25 | 
16 | Cc1cc[c]([Bi]([O]S(=O)(=O)c2ccc(C)cc2)[c]2ccc(C)cc2)cc1 [Compound 19] |  |  | weaker antimicrobial activity against E. coli | 0.8 | most effective against S. aureus | 1.8 cm | 2.5 µg/mL | 76.6 | No inhibition |  | 
17 | Cc1cc[c]([Bi]([O]S(=O)(=O)c2ccc(C)cc2)[O]S(=O)(=O)c2ccc(C)cc2)cc1 [Compound 21] |  |  | weaker antimicrobial activity against E. coli | 1 | most effective against S. aureus | 1.5 cm | 1.25 μg/mL L | 38.7 | 40 µg/mL |  | 
18 | COc1cc[c]([Bi]([c]2ccccc2)[c]2ccc(OC)cc2)cc1 [Compound 7] |  |  | little activity against E. coli | 0 | showed antibacterial activity against S. aureus | 1.1 cm |  |  |  |  | 
19 | COC(OC)c1cc[c]([Bi]([c]2ccccc2)[c]2ccccc2)cc1 [Compound 1] |  |  |  | 0 |  | 0 cm |  |  |  |  | 
20 | Cc1ccc(S(=O)(=O)[O][Bi]([O]S(=O)(=O)c2ccc(C)cc2)[c]2ccccc2)cc1 [Compound 16] |  |  |  | 1 |  | 1.8 cm | 0.625 µg/mL | 81.8 | 20 µg/mL |  | 
21 | CN(C)[C@@H]1C(O)=C(C(N)=O)C(=O)[C@@]2(O)C(O)=C3C(=O)c4c(O)cccc4[C@@](C)(O)[C@H]3C[C@@H]12 [Tetracycline, reference compound] |  |  |  |  |  |  |  |  |  |  | 18 to 25
22 | Cc1cc(C)[c]([Bi]([c]2ccccc2)[c]2ccccc2)c(C)c1 [Compound 5] |  |  | weaker antimicrobial activity against E. coli | 0 | most effective against S. aureus | 1.6 cm | 0.625 µg/mL |  | 40 µg/mL |  | 
23 | COc1cc[c]([Bi]([c]2ccc(C)cc2)[c]2ccc(OC)cc2)cc1 [Compound 12] |  |  | little activity against E. coli | 0 | showed antibacterial activity against S. aureus | 1 cm |  |  |  |  | 
